Data on 1 substance can be found in patent US20260183411A1, “TARGETING SORTILIN” (priority 2024, published 2026).

Assay [1] deals with GAPDH mRNA. Kind of assay: GAPDH mRNA knockdown in HEK293 cells overexpressing SORT-1 (RT-qPCR). The format is cell-based. The settings on record: HEK293 + SORT1 − CQ. The procedure:
(§1) These GAPDH siRNA-peptide conjugates were then evaluated in HEK293 cells and the neuronal cell line, neuro2A.
(Real-time PCR tracks product formation cycle by cycle.)

For assay [2], the system named is GAPDH mRNA. Nature of the assay: GAPDH mRNA knockdown in differentiated Neuro-2a cells (RT-qPCR). The settings on record: Neuro2a − CQ. It counts as cell-based. The protocol:
as §1

“Maleimide-(bAla)(Sar)(Sar)(Sar)(Sar)APRWDAPLRDPALRQ(B13)(G48) [Peptide 2-GAPDH6-thiol]”: the “GAPDH mRNA % knockdown compared to untreated cells” value in the assay on GAPDH mRNA [1] was found to be 40%; in the assay on GAPDH mRNA [2], 0%.
